Measurements: patent US5789440A, “5,6-dihydropyrone derivatives as protease inhibitors and antiviral agents” (Warner-Lambert Company, priority 1994, dated 1998)
Values after ≈ are worked out from the molar mass of the structure shown. Where two headings read alike, the source gives them in different places.

Legend:
[1] = target: T1, HIV-1 Protease (Human immunodeficiency virus type 1 group M subtype B, UniProt P04585); assay: HIV protease inhibition (undecapeptide substrate cleavage, HPLC); type: biochemical; conditions: 37° C., 5 min, 40 μM substrate, pH 4.7, 2% DMSO, read-out: 50% INHIBITION CONCENTRATION
T1 construct: HIV-1 Protease; purchased Bachem Bioscience Inc
Protocol: 1.0 mM dithiothreitol (DTT) was prepared fresh daily in 0.1% polyethylene glycol (mw 8000) 80 mM NaOAc, 160 mM NaCl, 1.0 mM EDTA, and brought to pH 4.7 with HCl.
The enzyme is obtained from Bachem Bioscience Inc. The undiluted enzyme is thawed from -80° C. and diluted 50-fold with DTT buffer. The solution is always kept at 0° C. on ice water and used in the experiment within 20 minutes after thawing.
Substrate III from Bachem Bioscience Inc. is the undecapeptide H-His-Lys-Ala-Arg-Val-Leu-p-Nitrophenylalanine-Glu-Ala-Norleucine-Ser-NH2 (>97% purity). A 200 μM stock solution in DTT buffer is prepared and stored on ice. Substrate solution is prepared fresh daily.
10 mM inhibitor (I) in dimethyl sulfoxide (DMSO) is diluted to 200 μM with DTT buffer. From the 200 μM stock solution is made a 10 μM stock solution with 2% DMSO in DTT buffer. The two inhibitor solutions are used to make final [I] =100, 50, 20, 10, 5, 2, 1, 0.5 and 0 μM with 2% DMSO in DTT buffer in each reaction well (total inhibitor volume of 50 μl).
To each reaction well is added 20 μl of substrate (final concentration of 40 μM), 50 μl of inhibitor (at a concentration such that final dilution will produce the test concentration) and 20 μl of DTT buffer. The reaction plate (96 wells) is incubated at 37° C. for at least 5 minutes.
10 μl of the diluted protease is added to the reaction well while the reaction plate is shaking. Once shaken for 10 seconds, the plate is returned to the heating block at 37° C. (final reaction volume 100 μl.)
The reaction is incubated for 5 minutes at 37° C. The reaction is stopped by placing the reaction plate on the shaker and adding 20 μl of 10% trifluoroacetic acid (TFA) and shaking for 10 seconds. The amount of proteolysis is then determined by separation of noncleaved substrate and two cleaved products with reverse-phase HPLC, while measuring absorbance at 220 nm to determine the relative peak areas of the three components. The relative peak areas are used to calculate % conversion to product as a function of inhibitor concentration. The data are plotted as % Control (the ratio of % conversion in the presence and absence of inhibitor×100) versus inhibitor concentration and fitted with the equation Y=100/1+(X/IC50)^A, where IC50 is the inhibitor concentration at 50% inhibition and A is the slope of the inhibition curve.

[2] = tested on: HIV1iiib in H9 cells; assay: Antiviral activity in H9 cells (acute HIV-1 infection, reverse transcriptase assay); type: cell-based; conditions: read-out: Concentration for 50% Protection
Protocol: Using the general methods of Pauwels et al., (J. Virol. Methods, 16, 171-185, 1987) and Mann et al. (AIDS Research and Human Retroviruses, 253-255, 1989 (anti-viral assays of active HIV-1 infection were performed in the H9 cell line. Cultures were batch infected in 1 ml of RPM1 1640 media/10% fetal calf serum containing 10^5 infectious doses of HIV1iiib for an effective multiplicity of infection of 0.01. After 2 hours of viral absorption, cells were washed once and palted in 96-wellmicrotiter plates at a density of 10^4 cells per well. Test compounds were added to produce the desired concentration of drug and 0.1% DMSO in a final volume of 200 μl. Uninfected parallel cultures were maintained for XTT cytotoxicity assay at 7 days post infection. Cultures were tested for viral replication by reverse transcriptase assay at 4 and 7 days post infection.

[3] = tested on: Streptococcus pneumonia 5V-1; assay: Antibacterial activity, microtitration dilution method; type: cell-based; conditions: Streptococcus pneumoniae, 5V1, read-out: minimum inhibitory concentration (MIC)
Description: (§1) The compounds of the invention display antibacterial activity when tested by the microtitration dilution method as described in Heifetz, et al., Antimicr. Agents. & Chemoth. 6: 124 (1974) which is incorporated herein by reference.
(§2) By use of the above referenced method, the following minimum inhibitory concentration values (MICs in μg/mL) were obtained for representative compounds of the invention vs. clinically relevant gram positive pathogens which have become highly resistant to conventional therapy in recent years.

[4] = tested on: Enterococcus foecalis MGH2; assay: as above; type: cell-based; conditions: read-out: minimum inhibitory concentration (MIC)
Description: as §1, §2

[5] = tested on: Staphylococcus aureus H228; assay: as above; type: cell-based; conditions: read-out: minimum inhibitory concentration (MIC)
Description: as §1, §2

[6] = tested on: Staphylococcus aureus UC-76; assay: as above; type: cell-based; conditions: UC76, read-out: minimum inhibitory concentration (MIC)
Description: as §1, §2

[7] = tested on: Streptococcus pyogenes C203; assay: as above; type: cell-based; conditions: read-out: minimum inhibitory concentration (MIC)
Description: as §1, §2

[8] = Human immunodeficiency virus 1, multiplicity of infection 0.01, 0.1% DMSO

Compound | IC50 [1] | also measured
5,6-Dihydro-4-hydroxy-3-[(3-methoxyphenyl)methyl]-6-phenyl-6-(2-phenylethyl)-2H-pyran-2-one [Example 119] | 97 nM | EC50 ([2]; multiplicity of infection 0.01, 0.1% DMSO): 59000 nM
O=C1OC(c2ccccc2)CC(O)=C1SCCc1ccccc1 (racemic) [Example 2, 5,6-Dihydro-4-hydroxy-6-phenyl-3-[(2-phenylethyl)thio]-2H-pyran-2-one] | 1900 nM | 
CC(C)CC1(c2ccccc2)CC(O)=C(SCc2ccccc2)C(=O)O1 (racemic) [Example 5, 5,6-Dihydro-4-hydroxy-6-(2-methylpropyl)-6-phenyl-3-[(phenylmethyl)thio]-2H-pyran-2-one] | 400 nM | 
CCCCC1(c2ccc(-c3ccccc3)cc2)CC(O)=C(SCCc2ccccc2)C(=O)O1 (racemic) [Example 22, 6-[1,1'-Biphenyl]-4-yl-6-butyl-5,6-dihydro-4-hydroxy-3-[(2-phenylethyl)thio]-2H-pyran-2-one] | 1100 nM | 
CCCCC1(c2ccccc2)CC(O)=C(SCc2ccccc2)C(=O)O1 (racemic) [Example 29, 6-Butyl-5,6-dihydro-4-hydroxy-6-phenyl-3-[(phenylmethyl)thio]-2H-pyran-2-one] | 260 nM | 
CC(C)CCC1(c2ccccc2)CC(O)=C(SCc2ccccc2)C(=O)O1 (racemic) [Example 35, 5,6-Dihydro-4-hydroxy-6-(3-methylbutyl)-6-phenyl-3-[(phenylmethyl)thio]-2H-pyran-2-one] | 120 nM | 
O=C1OC(CCc2ccccc2)(c2ccccc2)CC(O)=C1SCc1ccccc1 (racemic) [Example 39, 5,6-Dihydro-4-hydroxy-6-phenyl-6-(2-phenylethyl)-3-[(phenylmethyl)thio]-2H-pyran-2-one] | 50 nM | 
O=C1OC(CCc2ccccc2)(c2ccccc2)CC(O)=C1SCCc1ccccc1 (racemic) [Example 40, 5,6-Dihydro-4-hydroxy-6-phenyl-6-(2-phenylethyl)-3-[(2-phenylethyl)thio]-2H-pyran-2-one] | 60 nM | 
O=C1OC(CCc2ccc(Cl)c(Cl)c2)(c2ccccc2)CC(O)=C1SCc1ccccc1 (racemic) [Example 44, 6-[2-(3,4-Dichlorophenyl)ethyl]-5,6-dihydro-4-hydroxy-6-phenyl-3-[(phenylmethyl)thio]-2H-pyran-2-one] | 320 nM | 
O=C1OC(CC2CCCC2)(c2ccccc2)CC(O)=C1SCc1ccccc1 (racemic) [Example 50, 6-Cyclopentylmethyl-5,6-dihydro-4-hydroxy-6-phenyl-3-[(phenylmethyl)thio]-2H-pyran-2-one] | 88 nM | 
O=C1OC2(CCCc3ccccc32)CC(O)=C1SCc1ccccc1 (racemic) [Example 52, 3,4-Dihydro-4'-hydroxy-5'-[(phenylmethyl)thio]-spiro[naphthalene-1(2H),2'-[2H]pyran]-6'(3'H)-one] | 2000 nM | 
O=C(O)CCCCC1(c2ccccc2)CC(O)=C(SCCc2ccccc2)C(=O)O1 (racemic) [Example 56, 5-(3,6-Dihydro-4-hydroxy-6-oxo-2-phenyl-5-[(2-phenylethyl)thio]-2H-pyran-2-yl)pentanoic acid] | 5 nM | 
O=C1OC(c2ccccc2)(c2ccncc2)CC(O)=C1SCCc1ccccc1 (racemic) [Example 57, 5,6-Dihydro-4-hydroxy-6-phenyl-3-[(2-phenylethyl)thio]-6-pyridin-4-yl-2H-pyran-2-one] | 650 nM | 
O=C(CCCC1(c2ccccc2)CC(O)=C(SCc2ccccc2)C(=O)O1)NCc1ccccc1 (racemic) [Example 61, N-Benzyl-4-(3,6-dihydro-4-hydroxy-6-oxo-2-phenyl-5-[(phenylmethyl)thio]-2H-pyran-2-yl)butyramide] | 220 nM | 
O=C1OC(CCc2ccccc2)(c2ccccc2)CC(O)=C1Sc1ccccc1 (racemic) [Example 71, 5,6-Dihydro-4-hydroxy-6-phenyl-6-(2-phenylethyl)-3-phenylthio-2H-pyran-2-one] | 100 nM | 
CC(C)c1ccccc1SC1=C(O)CC(CCc2ccccc2)(c2ccccc2)OC1=O (racemic) [Example 72, 5,6-Dihydro-4-hydroxy-3-(2-isopropylphenylthio)-6-phenyl-6-(2-phenylethyl)-2H-pyran-2-one] |  | MIC [3]: 25 µg/mL (≈ 56.2 µM); MIC [4]: 100 µg/mL (≈ 225 µM); MIC [5]: 25 µg/mL (≈ 56.2 µM); MIC [6]: 25 µg/mL (≈ 56.2 µM); MIC [7]: 25 µg/mL (≈ 56.2 µM)
CC(C)CCC1(c2ccccc2)CC(O)=C(Sc2ccccc2C(C)C)C(=O)O1 (racemic) [Example 75, 5,6-Dihydro-4-hydroxy-6-(3-methylbutyl)-6-phenyl-3-(2-isopropyl-phenylthio)-2H-pyran-2-one] | 28 nM | 
Cc1ccc(C)c(CSC2=C(O)CC(CCc3ccccc3)(c3ccccc3)OC2=O)c1 (racemic) [Example 90, 5,6-Dihydro-4-hydroxy-3-[(2,5-dimethylphenyl)methylthio]-6-phenyl-6-(2-phenylethyl)-2H-pyran-2-one] | 140 nM | 
O=C1OC(CCc2ccccc2)(c2ccccc2)CC(O)=C1SCc1ccccc1-c1ccccc1 (racemic) [Example 92, 3-(Biphenyl-2-ylmethylthio)-5,6-dihydro-4-hydroxy-6-phenyl-6-(2-phenylethyl)-2H-pyran-2-one] | 270 nM | 
CC(C)CCC1(c2ccccc2)CC(O)=C(SCc2ccccc2Cl)C(=O)O1 (racemic) [Example 94, 3-(2-Chlorophenylmethylthio)-5,6-dihydro-4-hydroxy-6-(3-methylbutyl)-6-phenyl-2H-pyran-2-one] | 220 nM | EC50 [2, 8]: 29000 nM
CC(C)CCC1(c2ccccc2)CC(O)=C(SCc2ccccc2-c2ccccc2)C(=O)O1 (racemic) [Example 95, 3-(Biphen-2-ylmethylthio)-5,6-dihydro-4-hydroxy-6-(3-methylbutyl)-6-phenyl-2H-pyran-2-one] | 1090 nM | EC50 [2, 8]: 39000 nM
O=C1OC(c2ccc(OCc3ccccc3)cc2)CC(O)=C1SCCc1ccccc1 (stereo not shown) [Example 14] | 2500 nM | 
O=C1OC(c2ccccc2)(c2ccccc2)CC(O)=C1SCc1ccccc1 [Example 37, 5,6-Dihydro-4-hydroxy-6,6-diphenyl-3-[(phenylmethyl)thio]-2H-pyran-2-one] | 260 nM | 
O=C1OC(c2ccccc2)(c2ccccc2)CC(O)=C1CCCc1ccccc1 [Example 66, 5,6-Dihydro-4-hydroxy-6,6-diphenyl-3-(3-phenylpropyl)-2H-pyran-2-one] | 390 nM | 
Cc1cccc(SC2=C(O)CC(c3ccccc3)(c3ccccc3)OC2=O)c1 [Example 70, 5,6-Dihydro-4-hydroxy-3-(3-methylphenylthio)-6,6-diphenyl-2H-pyran-2-one] | 110 nM | 
O=C1OC(CCc2ccccc2)(c2ccccc2)CC(O)=C1Cc1ccccc1C(F)(F)F (stereo not shown) [Example 114, 5,6-Dihydro-4-hydroxy-6-phenyl-6-(2-phenylethyl)-3-[(2-trifluoromethylphenyl)methyl]-2H-pyran-2-one] | 79 nM | EC50 [2, 8]: 26000 nM
